Assay results: article PMC4417724 (Nature, 2014)

Key:
[1] = target: FLAG-RTCB (human tRNA ligase complex) with recombinant Archease (Homo sapiens, UniProt Q9Y3I0); assay: radiolabelled guanylation, SDS-PAGE autoradiography; type: biochemical; details: covalent RTCB-guanylate intermediate; labelled compound; Archease 10 μM, ATP, Mg(OAc)2, pH 7.5, 37 °C
[2] = target: recombinant hexahistidine tagged human Archease (human); assay: SPR

Sequence of FLAG-RTCB (human tRNA ligase complex) with recombinant Archease (Q9Y3I0 whole entry): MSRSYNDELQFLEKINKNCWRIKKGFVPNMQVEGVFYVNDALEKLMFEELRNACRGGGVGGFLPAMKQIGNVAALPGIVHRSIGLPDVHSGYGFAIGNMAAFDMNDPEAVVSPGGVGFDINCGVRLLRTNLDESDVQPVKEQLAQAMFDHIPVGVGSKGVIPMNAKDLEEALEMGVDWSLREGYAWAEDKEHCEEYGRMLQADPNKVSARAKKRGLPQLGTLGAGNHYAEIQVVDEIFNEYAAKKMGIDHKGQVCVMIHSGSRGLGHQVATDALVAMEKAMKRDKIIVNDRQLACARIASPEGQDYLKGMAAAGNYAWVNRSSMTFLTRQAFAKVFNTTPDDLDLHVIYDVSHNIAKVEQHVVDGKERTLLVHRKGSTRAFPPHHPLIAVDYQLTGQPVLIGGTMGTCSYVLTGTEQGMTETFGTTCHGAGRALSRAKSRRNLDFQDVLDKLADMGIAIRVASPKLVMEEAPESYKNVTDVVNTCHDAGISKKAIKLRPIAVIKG
Sequence of FLAG-RTCB (human tRNA ligase complex) with recombinant Archease (Q8IWT0 2-167 partner): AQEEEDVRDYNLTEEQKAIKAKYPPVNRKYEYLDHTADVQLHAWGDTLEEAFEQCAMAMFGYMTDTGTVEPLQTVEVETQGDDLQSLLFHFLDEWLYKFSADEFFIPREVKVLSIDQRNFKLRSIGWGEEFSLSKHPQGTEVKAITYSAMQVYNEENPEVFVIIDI
Sequence of FLAG-RTCB (human tRNA ligase complex) with recombinant Archease (Q92499 whole entry partner): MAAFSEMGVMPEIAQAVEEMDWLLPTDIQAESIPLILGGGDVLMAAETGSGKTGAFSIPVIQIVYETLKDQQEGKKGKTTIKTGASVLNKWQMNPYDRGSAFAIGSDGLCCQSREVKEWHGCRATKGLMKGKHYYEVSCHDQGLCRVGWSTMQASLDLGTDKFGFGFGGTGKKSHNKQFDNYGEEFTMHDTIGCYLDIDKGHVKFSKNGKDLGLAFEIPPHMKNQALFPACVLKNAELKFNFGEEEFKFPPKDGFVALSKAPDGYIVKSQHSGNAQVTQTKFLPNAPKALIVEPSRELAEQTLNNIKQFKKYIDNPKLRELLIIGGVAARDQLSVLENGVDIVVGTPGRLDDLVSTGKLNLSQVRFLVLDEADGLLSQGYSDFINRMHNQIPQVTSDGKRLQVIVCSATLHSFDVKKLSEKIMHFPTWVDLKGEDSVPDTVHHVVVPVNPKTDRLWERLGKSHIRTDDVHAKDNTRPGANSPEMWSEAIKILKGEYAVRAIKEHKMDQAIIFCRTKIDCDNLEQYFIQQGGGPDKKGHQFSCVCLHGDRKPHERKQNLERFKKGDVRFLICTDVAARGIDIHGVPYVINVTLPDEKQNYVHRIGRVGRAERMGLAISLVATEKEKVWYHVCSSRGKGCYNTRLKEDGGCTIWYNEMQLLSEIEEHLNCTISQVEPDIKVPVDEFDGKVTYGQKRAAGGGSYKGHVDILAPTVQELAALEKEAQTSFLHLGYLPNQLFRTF
Sequence of FLAG-RTCB (human tRNA ligase complex) with recombinant Archease (Q52LJ0 whole entry partner): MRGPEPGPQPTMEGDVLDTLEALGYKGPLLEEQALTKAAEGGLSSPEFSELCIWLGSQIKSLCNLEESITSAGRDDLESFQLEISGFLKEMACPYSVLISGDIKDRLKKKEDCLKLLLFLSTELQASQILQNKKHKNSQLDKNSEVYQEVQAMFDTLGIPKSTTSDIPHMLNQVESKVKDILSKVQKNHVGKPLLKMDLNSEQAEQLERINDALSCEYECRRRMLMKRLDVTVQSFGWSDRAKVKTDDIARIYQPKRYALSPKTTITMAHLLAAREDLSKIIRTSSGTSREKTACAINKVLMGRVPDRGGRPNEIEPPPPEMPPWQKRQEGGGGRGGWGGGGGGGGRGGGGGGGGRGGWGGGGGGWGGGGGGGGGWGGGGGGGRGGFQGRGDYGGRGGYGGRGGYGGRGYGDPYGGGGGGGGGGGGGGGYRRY
Sequence of FLAG-RTCB (human tRNA ligase complex) with recombinant Archease (Q9BVC5 whole entry partner): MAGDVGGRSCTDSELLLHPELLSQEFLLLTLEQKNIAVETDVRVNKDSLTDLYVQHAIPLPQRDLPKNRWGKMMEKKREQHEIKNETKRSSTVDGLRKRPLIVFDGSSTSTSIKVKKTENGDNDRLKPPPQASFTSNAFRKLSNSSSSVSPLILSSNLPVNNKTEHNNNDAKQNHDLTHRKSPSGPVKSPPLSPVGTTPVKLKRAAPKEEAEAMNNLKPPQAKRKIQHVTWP
Sequence of FLAG-RTCB (human tRNA ligase complex) with recombinant Archease (Q9Y224 whole entry partner): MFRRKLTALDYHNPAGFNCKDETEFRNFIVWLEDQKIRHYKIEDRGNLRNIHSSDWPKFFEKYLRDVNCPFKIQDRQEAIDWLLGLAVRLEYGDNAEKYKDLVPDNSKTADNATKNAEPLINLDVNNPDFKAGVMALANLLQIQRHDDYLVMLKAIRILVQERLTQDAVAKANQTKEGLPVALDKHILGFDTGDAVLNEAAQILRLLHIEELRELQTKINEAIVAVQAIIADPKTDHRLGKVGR

Kd [2] [nM]	Compound	radiolabelled guanylation, SDS-PAGE autoradiography [1]
	Nc1nc2c(ncn2[C@@H]2O[C@H](COP(=O)(O)OP(=O)(O)OP(=O)(O)O)[C@@H](O)[C@H]2O)c(=O)[nH]1 [GTP]	Formation of a radiolabeled band corresponding to guanylated human FLAG-RTCB required the addition of WT Archease
1.8	FLAG-RTCB complexes (human tRNA ligase complex affinity-purified by FLAG-RTCB) (from UniProt Q9Y3I0;Q92499;Q52LJ0;Q9Y224;Q9BVC5)	
